According to US10584346B2, “HSF-like transcription factor, TBF1, is a major molecular switch for growth-to-defense transition in plants” (Duke University, priority 2011, dated 2020):

Columns and labels:
TBF1 promoter = assay: Induction of the TBF1 promoter by chemical inducers
Psm ES4326 = assay: Bacterial infection assay: SA- and MAMP-induced resistance to Psm ES4326 in Arabidopsis plants; type: in vivo, Pseudomonas syringae pv. maculicola; conditions: 1 mM SA spray 24 hrs prior to infection, Psm ES4326 OD600nm=0.001
Experimental: Infection of Arabidopsis plants with Pseudomonas syringae pv. maculicola (Psm) ES4326 was performed as described previously. To test for enhanced disease susceptibility, a bacterial suspension at OD600nm=0.0001 was infiltrated into 2-3 leaves per plant and 12 plants/genotype. Bacterial growth was quantified 3 days later. To test for SAR and MAMP-induced resistance, plants were pre-treated with relevant compounds (1 mM SA, spray 24 hrs prior to infection; 10 μM elf18, infiltration 2 hrs prior to infection; 10 μM flg22, infiltration 2 hrs prior to infection), and subsequently inoculated with Psm ES4326 (OD600nm=0.001) into 2-3 leaves per plant and 12 plants/genotype/treatment. Sampling was performed 3 days post inoculation.

Arabidopsis seedlings [1] = assay: Seedling growth (fresh weight) on MS media supplemented with SA, elf18 or flg22; type: in vivo; conditions: WT plants; 10 days on MS with increasing concentrations of SA or 10 μM elf18
Experimental: (Panel 11A) Fresh weight of ten seedlings grown for 10 days on plates with MS growth media (Ctrl), MS supplemented with increasing concentrations of SA or 10 μM elf18. Error bars represent the standard deviation of three replicates. This experiment was repeated three times with similar results. Statistical analysis was performed using the Student's t-test, *, p-value<0.05, **, p-value<0.01, ***, p-value≤0.001.
Fresh weight of ten seedlings grown for 10 days on plates with regular MS growth media (−f1g22) or MS supplemented with 10 μM f1g22 (+f1g22). Error bars represent standard deviation of three replicates. The experiment was repeated three times with similar results.

Arabidopsis seedlings [2] = assay: Tunicamycin sensitivity assay (seedling recovery/survival); type: in vivo; conditions: two-day treatment with tunicamycin at 300 μg/L, measured 10 days later
Experimental: (Panel 11B) Seedling recovery after a two-day treatment with the UPR inducer tunicamycin at 300 μg/L was measured 10 days later by counting the percentage of surviving seedlings (left), and by phenotype observations (right). Error bars represent standard deviation of three replicates. This experiment was repeated five times with similar results. Statistical analysis was performed using the Student's t-test, ***, p-value≤0.001.
This assay was performed as described in earlier studies.

| Compound | induction of the TBF1 promoter (TBF1 promoter) | other results |
| --- | --- | --- |
| CC/C=C\CC1C(=O)CCC1CC(=O)OC (centres unmarked) [methyl ester of jasmonic acid] | shown to induce the TBF1 promoter |  |
| O=C(O)c1ccccc1O [SA, salicylic acid] | shown to induce the TBF1 promoter | reduction in Psm ES4326 growth in response to induction by SA (Psm ES4326; WT plants, 3 days post inoculation): ~2 log; reduction in Psm ES4326 growth in response to induction by SA (Psm ES4326; tbf1 mutant): less than 1 log; growth of seedlings (fresh weight) (Arabidopsis seedlings [1]): significantly inhibited |
| O=[N+]([O-])[O-].[Ag+] [AgNO3] | shown to induce the TBF1 promoter |  |
| C[C@@H]1C[C@@H]([C@H](O)CC2CC(=O)NC(=O)C2)C(=O)[C@@H](C)C1 [cycloheximide] | shown to induce the TBF1 promoter |  |
| C=C [ethylene] | shown to induce the TBF1 promoter |  |
| [Cl-].[Na+] [NaCl] | shown to induce the TBF1 promoter |  |
| OC[C@@H](O)[C@@H](O)[C@H](O)[C@H](O)CO [mannitol] | shown to induce the TBF1 promoter |  |
| CC/C=C\C[C@H]1C(=O)CC[C@@H]1CC(=O)O [jasmonic acid] | shown to induce the TBF1 promoter |  |
| tunicamycin |  | seedling survival rate (Arabidopsis seedlings [2]; WT): ~60%; seedling survival rate (Arabidopsis seedlings [2]; tbf1 mutant): ~20% |
| CC1=CC(=O)CC(C)(C)[C@@]1(O)/C=C/C(C)=C\C(=O)O [abscisic acid] | shown to induce the TBF1 promoter |  |
